Like-named read-outs stand apart in the source and are kept apart here.
How the values were obtained:
[1] = system: NCI-H358 cells (express KRas G12C), Phospho-ERK; assay: Cellular inhibition of KRas G12C: Phospho-ERK in NCI-H358 cells; format: cell-based; conditions: pERK(Thr202/Tyr204) normalized with GAPDH, NCI-H358 cells, 3 hours, read-out: IC50
Method in brief: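 IC50 derived by 4-parameter fit of GAPDH-normalized pERK(Thr202/Tyr204) signal, as percent of DMSO control. Signal came from in-cell immunodetection with infrared secondaries after 3 h compound exposure of KRas G12C NCI-H358 cells at 0.5% DMSO.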

[2] = target: KRas G12C (Homo sapiens, UniProt P01116, C118S/C51S/C80L/G12C); assay: KRas G12C Modification Assay (LCMS detection of covalent adduct); format: binding; conditions: normalized percent of control; tested at 5 μM concentration for 3 hours
Method in brief: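 Covalent modification was read by reverse-phase LC/MS of intact protein after compound exposure, each reaction stopped at its time point with 25 mM acetic acid. Unmodified-protein signal, taken as percent of total, was normalised to untreated protein and reported as POC.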

Structure (SMILES)	IC50 ([1]; Homo sapiens, NCI-H358, 3 h) [µM]	POC [2]	IC50 ([1]; Homo sapiens) [µM]	IC50 [1] [µM]
C=CC(=O)N1CCN(c2nc(OC[C@@H]3CCCN3C)nc3c2CCN(c2cccc(OC)c2F)C3)CC1CC#N (stereo partly drawn) [Example 307, 2-[4-[7-(2-fluoro-3-methoxy-phenyl)-2-[[(2S)-1-methylpyrrolidin-2-yl]methoxy]-6,8-dihydro-5H-pyrido[3,4-d]pyrimidin-4-yl]-1-prop-2-enoyl-piperazin-2-yl]acetonitrile]	> 1	C (“C”>50% POC)		
Cc1cccc2cccc(N3CCc4c(nc(OC[C@@H]5CCCN5C)nc4N4CCN(C(=O)/C=C/CN(C)C)[C@@H](CC#N)C4)C3)c12 [Example 456, 2-((S)-1-((E)-4-(dimethylamino)but-2-enoyl)-4-(7-(8-methylnaphthalen-1-yl)-2-(((S)-1-methylpyrrolidin-2-yl)methoxy)-5,6,7,8-tetrahydropyrido[3,4-d]pyrimidin-4-yl)piperazin-2-yl)acetonitrile]	0.0001 to 1	C (“C”>50% POC)		
C=CC(=O)N1CCN(c2nc(OCCCN3C[C@@H]4C[C@H]3CO4)nc3c2CCN(c2cc(O)cc4ccccc24)C3)CC1 [Example 104, 1-(4-(2-(3-((1 S,4S)-2-oxa-5-azabicyclo[2.2.1]heptan-5-yl)propoxy)-7-(3-hydroxynaphthalen-1-yl)-5,6,7,8-tetrahydropyrido[3,4-d]pyrimidin-4-yl)piperazin-1-yl)prop-2-en-1-one]	0.0001 to 1	C (“C”>50% POC)		
C=CC(=O)N1CCN(c2nc(OC[C@@H]3CCCN3C)nc3c2CCN(c2cccc4ccn(C)c24)C3)C[C@@H]1CC#N [Example 434, 2-((S)-1-acryloyl-4-(7-(1-methyl-1H-indol-7-yl)-2-(((S)-1-methylpyrrolidin-2-yl)methoxy)-5,6,7,8-tetrahydropyrido[3,4-d]pyrimidin-4-yl)piperazin-2-yl)acetonitrile]	0.0001 to 1	C (“C”>50% POC)		
C=CC(=O)N1CCN(c2nc(OC[C@H]3CCCN3CCO)nc3c2CCN(c2cccc4ccccc24)C3)C[C@@H]1CC#N [Example 329, 2-[(2S)-4-[2-[[(2R)-1-(2-hydroxyethyl)pyrrolidin-2-yl]methoxy]-7-(1-naphthyl)-6,8-dihydro-5H-pyrido[3,4-d]pyrimidin-4-yl]-1-prop-2-enoyl-piperazin-2-yl]acetonitrile]	0.0001 to 1	C (“C”>50% POC)		
C=CC(=O)N1CCN(c2nc(-c3cccc(CN4CCOCC4)c3)nc3c2CCN(c2cc(O)cc4ccccc24)C3)CC1 [Example 186]		B (“B”>25% POC−≤50% POC)	> 1	
C=CC(=O)N1CCN(c2nc(OCCN3CCCC[C@@H]3C)nc3c2CCN(c2cc(O)cc4ccccc24)C3)CC1 [Example 88, (S)-1-(4-(7-(3-hydroxynaphthalen-1-yl)-2-(2-(2-methylpiperidin-1-yl)ethoxy)-5,6,7,8-tetrahydropyrido[3,4-d]pyrimidin-4-yl)piperazin-1-yl)prop-2-en-1-one]	0.0001 to 1	C (“C”>50% POC)		
C=CC(=O)N1CCN(c2nc(OC[C@@H]3CCCN3C)nc3c2CCN(c2ncccc2C(F)(F)F)C3)CC1CC#N (stereo partly drawn) [Example 373, 2-(1-acryloyl-4-(2-(((S)-1-methylpyrrolidin-2-yl)methoxy)-7-(3-(trifluoromethyl)pyridin-2-yl)-5,6,7,8-tetrahydropyrido[3,4-d]pyrimidin-4-yl)piperazin-2-yl)acetonitrile]	> 1	C (“C”>50% POC)		
C=CC(=O)N1CCN(c2nc(OC[C@@H]3CCCN3CCOC)nc3c2CCN(c2cccc4ccccc24)C3)CC1CC#N (stereo partly drawn) [Example 380, 2-(1-acryloyl-4-(2-(((S)-1-(2-methoxyethyl)pyrrolidin-2-yl)methoxy)-7-(naphthalen-1-yl)-5,6,7,8-tetrahydropyrido[3,4-d]pyrimidin-4-yl)piperazin-2-yl)acetonitrile]		C (“C”>50% POC)		0.0001 to 1
C=CC(=O)N1CCN(c2nc(OC[C@@H]3CCCN3C)nc3c2CCN(c2c(C)c(C)cc4[nH]ccc24)C3)CC1 [Example 454, 1-[4-[7-(5,6-dimethyl-1H-indol-4-yl)-2-[[(2S)-1-methylpyrrolidin-2-yl]methoxy]-6,8-dihydro-5H-pyrido[3,4-d]pyrimidin-4-yl]piperazin-1-yl]prop-2-en-1-one]	0.0001 to 1	C (“C”>50% POC)		
C=CC(=O)N1CCN(c2nc(O[C@H](C)CN(C)C)nc3c2CCN(c2c(C)cccc2O)C3)CC1 [Example 95, (R)-1-(4-(2-((1-(dimethylamino)propan-2-yl)oxy)-7-(2-hydroxy-6-methylphenyl)-5,6,7,8-tetrahydropyrido[3,4-d]pyrimidin-4-yl)piperazin-1-yl)prop-2-en-1-one]		A (“A”≤25% POC)	> 1	
C=CC(=O)N1CCN(c2nc(OCCNC(C)=O)nc3c2CCN(c2cc(O)cc4ccccc24)C3)CC1 [Example 59, N-(2-((4-(4-acryloylpiperazin-1-yl)-7-(3-hydroxynaphthalen-1-yl)-5,6,7,8-tetrahydropyrido[3,4-d]pyrimidin-2-yl)oxy)ethyl)acetamide]	> 1	C (“C”>50% POC)		
CC#CC(=O)N1CCN(c2nc(OC[C@@H]3CCCN3C)nc3c2CCN(c2cccc4cccc(Cl)c24)C3)C[C@@H]1CC#N [Example 391, 2-((S)-1-(but-2-ynoyl)-4-(7-(8-chloronaphthalen-1-yl)-2-(((S)-1-methylpyrrolidin-2-yl)methoxy)-5,6,7,8-tetrahydropyrido[3,4-d]pyrimidin-4-yl)piperazin-2-yl)acetonitrile]	0.0001 to 1	C (“C”>50% POC)		
C=CC(=O)N1CCN(c2nc(O[C@H](C)CN(C)C)nc3c2CCN(c2cccc4ccccc24)C3)CC1 [Example 68, (R)-1-(4-(2-((1-(dimethylamino)propan-2-yl)oxy)-7-(naphthalen-1-yl)-5,6,7,8-tetrahydropyrido[3,4-d]pyrimidin-4-yl)piperazin-1-yl)prop-2-en-1-one]	> 1	A (“A”≤25% POC)		
C=CC(=O)N1CCN(c2nc(OC[C@@H]3CCN(C)C3)nc3c2CCN(c2cc(O)cc4ccccc24)C3)CC1 [Example 110, (R)-1-(4-(7-(3-hydroxynaphthalen-1-yl)-2-((1-methylpyrrolidin-3-yl)methoxy)-5,6,7,8-tetrahydropyrido[3,4-d]pyrimidin-4-yl)piperazin-1-yl)prop-2-en-1-one]	0.0001 to 1	C (“C”>50% POC)		
C=CC(=O)N1CCN(c2nc(OCCN(C)C)nc3c2CCN(c2cc(O)cc4ccccc24)C3)CC1CO (centres unmarked) [Example 50, 1-(4-(2-(2-(dimethylamino)ethoxy)-7-(3-hydroxynaphthalen-1-yl)-5,6,7,8-tetrahydropyrido[3,4-d]pyrimidin-4-yl)-2-(hydroxymethyl)piperazin-1-yl)prop-2-en-1-one]	> 1	C (“C”>50% POC)		
C=CC(=O)N1CCN(c2nc(OC[C@@H]3[C@@H](O)CCN3C)nc3c2CCN(c2cccc4ccccc24)C3)C[C@@H]1CC#N [Example 390, 2-((S)-1-acryloyl-4-(2-(((2R,3S)-3-hydroxy-1-methylpyrrolidin-2-yl)methoxy)-7-(naphthalen-1-yl)-5,6,7,8-tetrahydropyrido[3,4-d]pyrimidin-4-yl)piperazin-2-yl)acetonitrile]	0.0001 to 1	C (“C”>50% POC)		
C=CC(=O)N1CCN(c2nc(OC[C@@H]3CCCN3C)nc3c2CCN(c2ccc(F)c(C)c2C)C3)C[C@@H]1CC#N [Example 423, 2-((S)-1-acryloyl-4-(7-(4-fluoro-2,3-dimethylphenyl)-2-(((S)-1-methylpyrrolidin-2-yl)methoxy)-5,6,7,8-tetrahydropyrido[3,4-d]pyrimidin-4-yl)piperazin-2-yl)acetonitrile]	0.0001 to 1	C (“C”>50% POC)		
C=CC(=O)N1CCN(c2nc(OC[C@@H]3CN(C)CCO3)nc3c2CCN(c2cccc4ccccc24)C3)CC1CC#N (stereo partly drawn) [Example 271, 2-(1-acryloyl-4-(2-(((S)-4-methylmorpholin-2-yl)methoxy)-7-(naphthalen-1-yl)-5,6,7,8-tetrahydropyrido[3,4-d]pyrimidin-4-yl)piperazin-2-yl)acetonitrile]	0.0001 to 1	C (“C”>50% POC)		
C=CC(=O)N1CCN(c2nc(OC[C@@H]3CCCN3C)nc3c2CCN(c2nccc4ccccc24)C3)CC1CC#N (stereo partly drawn) [Example 289, 2-[4-[7-(1-isoquinolyl)-2-[[(2S)-1-methylpyrrolidin-2-yl]methoxy]-6,8-dihydro-5H-pyrido[3,4-d]pyrimidin-4-yl]-1-prop-2-enoyl-piperazin-2-yl]acetonitrile]		C (“C”>50% POC)		> 1
C=CC(=O)N1CCN(c2nc(O[C@H](C)CN3CCN(C(C)=O)CC3)nc3c2CCN(c2cc(O)cc4ccccc24)C3)CC1 [Example 36, (R)-1-(4-(2-((1-(4-acetylpiperazin-1-yl)propan-2-yl)oxy)-7-(3-hydroxynaphthalen-1-yl)-5,6,7,8-tetrahydropyrido[3,4-d]pyrimidin-4-yl)piperazin-1-yl)prop-2-en-1-one]	> 1	C (“C”>50% POC)		
C=CC(=O)N1CCN(c2nc(OC[C@@H]3CCCN3C)nc3c2CCN(c2cccc(Cl)c2OC)C3)C[C@@H]1CC#N [Example 421, 2-((S)-1-acryloyl-4-(7-(3-chloro-2-methoxyphenyl)-2-(((S)-1-methylpyrrolidin-2-yl)methoxy)-5,6,7,8-tetrahydropyrido[3,4-d]pyrimidin-4-yl)piperazin-2-yl)acetonitrile]	0.0001 to 1	C (“C”>50% POC)		

— patent US10125134B2 (Mirati Therapeutics, Inc., priority 2016, dated 2018)
